Test results: patent US12616698B2, “Methods for reducing liver fat and for treating fatty liver disorders” (Corcept Therapeutics Incorporated, priority 2021, dated 2026)
“Also recorded” adds a separate entry of the source.

Test system: C57BL/6J male mice
Experiment: AMLN diet NASH mouse model, once per day oral dosing
Type: in vivo
Settings: 30 mg/kg/day orally once per day, 8 weeks
Description: Two studies were conducted in C57BL/6J male mice (n=12 per group) maintained on a diet high in fat (40%), cholesterol (2%) and fructose (20%; referred to as the AMLN diet: see, e.g., Tolbol et al., World Journal of Gastroenterology, 24(2):179-194 (2018)) for 42 weeks before dosing with miricorilant was initiated. In the first study, all animals ate the AMLN diet, and received either placebo, 30 mg/kg miricorilant, or 60 mg/kg mifepristone once per day orally. […] All animals received the AMLN diet for 42 weeks prior to receiving their first dose of study drug or placebo. 4 weeks prior to receiving that first dose, a liver biopsy and histological examination of biopsy tissue was performed for each animal; 3 weeks prior to receiving that first dose, animals were randomized into three groups: control, miricorilant, or mifepristone. […] At 56 days (week 8) after initiation of drug administration, plasma ALT, AST, triglycerides, total cholesterol, and miricorilant levels were measured, and animals were sacrificed, liver necropsies were performed, liver histological ((NAFLD Activity Score, Fibrosis Stage, steatosis (scored using hematoxylin and eosin staining (HE)), col1a (scored using immunohistochemistry (IHC)) and Galectin-3 (IHC)) and liver biochemical measurements (including liver triglycerides and total cholesterol) were made, and liver and plasma samples were obtained for genetic ((e.g., RNA sequencing) and other analyses.
Thus, in these studies, the mice were subjected to a liver biopsy approximately 4 weeks before initiation of dosing with miricorilant and only mice with confirmed fibrosis (fibrosis stage ≥1) and steatosis (score ≥2) were entered into the study. […] Body weight and food consumption were monitored throughout the study.
Liver samples were fixed in formalin, paraffin embedded and sections were stained with hematoxylin and eosin (H&E) and Sirius Red. Samples were scored for NAS and fibrosis stage using the clinical criteria outlined by Kleiner et al., Hepatology 41:1313-1321 (2005). […]

O=c1[nH]c(=O)c(Cc2cccc(C(F)(F)F)c2)c([C@H]2CC[C@H](c3ccccc3)CC2)[nH]1 [miricorilant, (E)-6-(4-Phenylcyclohexyl)-5-(3-trifluoromethylbenzyl)-1H-pyrimidine-2,4-dione]
NAFLD Activity Score (NAS) (AMLN diet, vs control (FIG. 7A)): reduced; also recorded: significant reductions; also recorded: either did not increase, or decreased
Hepatic ballooning portion of the NAFLD score (liver cell degeneration) (post- vs pre-study biopsy (FIG. 7B)): reduced
Fibrosis stage score, post-study compared to pre-study (none showed an increased score): some mice in the miricorilant group showed decreased post-study fibrosis stage score
